Entries after “also recorded” stand apart in the source; their conditions may differ.
Target: ALK4-FKBP12 interaction (Homo sapiens, UniProt P62942)
Experiment: reversed interaction trap: pSELFFY-ALK4 bait with inhibitory prey pMET7-fPPD1-FKBP12, rPAP1-luciferase reporter in HEK293T cells
Format: cell-based
Settings: pSELFFY-ALK4 + pMET7-fPPD1-FKBP12 (1000, 500, 250 ng), FK506 pretreatment, Epo 5 ng/ml after four hours, normalized with irrelevant bait pSELFFY-EpoR, FIG. 6
Experimental: HEK293T cells (six-well plate) were transfected with a combination of the following plasmids:
A representative experiment of triplicate luciferase measurements is shown. The values have been normalized using background luciferase activities (fold induction) and by using an irrelevant bait construct (pSELFFY-EpoR, exp. 4-6) to correct for toxicity of FK506 on the cells.
Two days after transfection, cells were seeded in black well plates (approximately 10,000 cells/well) and pretreated with various concentrations of FK506 as indicated. Epo was added after four hours to the treated cells (5 ng/ml). Twenty-four hours after stimulation, luciferase and beta-galactosidase activities were measured.
The values have been normalized using background luciferase activities (fold induction) and by using an irrelevant bait construct (pSELFFY-EpoR, exp. 4-6) to correct for toxicity of FK506 on the cells.

Sequence of ALK4-FKBP12 interaction (P62942 2-107): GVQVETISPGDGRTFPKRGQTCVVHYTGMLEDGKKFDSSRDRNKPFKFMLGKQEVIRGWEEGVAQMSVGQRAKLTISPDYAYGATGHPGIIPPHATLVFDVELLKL
Sequence of ALK4-FKBP12 interaction (P18031 1-276 partner limits assumed): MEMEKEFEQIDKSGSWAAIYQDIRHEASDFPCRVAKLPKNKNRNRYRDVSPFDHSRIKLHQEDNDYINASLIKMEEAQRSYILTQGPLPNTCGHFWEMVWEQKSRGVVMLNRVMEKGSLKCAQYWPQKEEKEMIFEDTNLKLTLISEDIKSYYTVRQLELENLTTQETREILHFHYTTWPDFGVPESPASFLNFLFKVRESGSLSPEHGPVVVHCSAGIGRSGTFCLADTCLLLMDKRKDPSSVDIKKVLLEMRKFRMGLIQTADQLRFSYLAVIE

SMILES: C=CC[C@@H]1/C=C(\C)C[C@H](C)C[C@H](OC)[C@H]2O[C@@](O)(C(=O)C(=O)N3CCCC[C@H]3C(=O)O[C@H](/C(C)=C/[C@@H]3CC[C@@H](O)[C@H](OC)C3)[C@H](C)[C@@H](O)CC1=O)[C@H](C)C[C@@H]2OC [FK506]
- restoration of signaling via the pSELFFY-ALK4 bait / block of inhibition by the bait-prey interaction (luciferase activity, fold induction): blocked, in a dose dependent manner; also recorded: partially restores signaling

From patent US8048986B2, “Reversed mammalian protein-protein interaction trap” (Vlaams Interuniversitair Instituut Voor Biotechnologie VZW, priority 2001, dated 2011)
